From PMC8958511, “Development of Sulfamoylated 4-(1-Phenyl-1H-1,2,3-triazol-4-yl)phenol Derivatives as Potent Steroid Sulfatase Inhibitors for Efficient Treatment of Breast Cancer” (Journal of Medicinal Chemistry, 2022)
Like-named read-outs stand apart in the source and are kept apart here.

Tests used:
[1] = format: in vivo; conditions: Table S1, MTD study, 50 mg/kg
Procedure: The mice were thus weighed, and their general health was observed. […] At the end of the study, the mice were sacrificed by dislocation of the cervical vertebrae, and the internal organs were examined macroscopically.
The mice were weighed, and their general health was observed. […] At the end of the MTD study, the autopsy was performed, and the internal organs (liver, kidney, and spleen) were weighed and macroscopically assessed.

[2] = tested on: 67NR mouse mammary tumor cells; experiment: antitumor activity in 67NR orthotopic mouse breast carcinoma model; format: in vivo, BALB/c mice; conditions: for tumor growth inhibition (TGI): 5 days a week, 67NR tumor, N = 9, vs control group
Procedure: The tumor volume (TV) and body weight were measured three times a week. Results for individual groups are reported in Figure S5, Supporting Information. Based on TV data, the tumor growth inhibition (TGI) was calculated for groups that received compounds and compared to that of the control group. […] The body weight of the treated animals was monitored during the study, and the body weight change (BWC) index was calculated (Figure 4). […] Body weight loss was observed between D2 and D11 and reached 4.5% at most.
The growth of tumors has been observed.

[3] = target: T1, STS isolated from the human placenta (Homo sapiens, UniProt P08842); experiment: radioisotope enzymatic assay with STS isolated from human placenta and [3H]E1S; format: biochemical; conditions: for remaining activity at 0.5 µM: read-out: residual STS activity [%]
T1 construct: radioisotope enzymatic assay using STS isolated from the human placenta; from tissue; host or cells: human placenta
T1 sequence (P08842 22-583): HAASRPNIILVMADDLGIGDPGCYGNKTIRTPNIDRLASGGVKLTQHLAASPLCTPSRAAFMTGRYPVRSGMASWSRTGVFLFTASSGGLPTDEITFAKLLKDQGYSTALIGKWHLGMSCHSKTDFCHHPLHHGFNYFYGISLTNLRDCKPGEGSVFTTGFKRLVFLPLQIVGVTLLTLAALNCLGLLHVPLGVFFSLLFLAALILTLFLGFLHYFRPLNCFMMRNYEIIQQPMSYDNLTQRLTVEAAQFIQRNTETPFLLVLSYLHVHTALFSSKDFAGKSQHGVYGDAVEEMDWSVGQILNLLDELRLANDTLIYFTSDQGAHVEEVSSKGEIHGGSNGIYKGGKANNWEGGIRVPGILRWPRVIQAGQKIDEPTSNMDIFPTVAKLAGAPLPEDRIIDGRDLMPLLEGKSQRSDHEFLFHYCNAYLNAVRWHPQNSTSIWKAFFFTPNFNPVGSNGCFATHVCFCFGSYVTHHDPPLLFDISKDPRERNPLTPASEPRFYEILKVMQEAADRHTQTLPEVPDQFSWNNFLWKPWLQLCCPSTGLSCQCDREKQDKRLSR
Procedure: The inhibitory potency of the synthesized compounds was examined in two ways, including an enzymatic assay and the radioisotope cellular test. The enzymatic assay was performed using the STS enzyme isolated from human placenta and using radiolabeled [^3H]E1S as a substrate.
The total volume of the reaction mixture was 100 μL. […] After incubation, the reaction mixture (90 μL) was collected from each well, and the product formed by STS hydrolysis was extracted with toluene (0.5 mL). STS activity was measured using a MicroBeta radioluminometer (PerkinElmer). Enzymatic assays were carried out in triplicate.

STS in MCF-7 cells = target: T2, STS in MCF-7 cells (Homo sapiens, UniProt P08842); experiment: radioisotope cellular assay with [3H]E1S in MCF-7 cells; format: cell-based; conditions: for remaining activity at 0.001 µM / remaining activity at 0.01 µM / remaining activity at 0.1 µM: MCF7, 20 h; for remaining activity at 0.001 µM: read-out: residual STS activity [%] 1 nM; for remaining activity at 0.01 µM: read-out: residual STS activity [%] 10 nM; for remaining activity at 0.1 µM: read-out: residual STS activity [%] 100 nM; for IC50: MCF-7 cells, substrate [3H]E1S, 3 nM
T2 construct: The radioisotope cellular assay was performed using the MCF-7 cell line; endogenous in cells; host or cells: MCF-7
T2 sequence (P08842 22-583): T1 sequence (P08842 22-583)
Procedure: All compounds were initially tested for their in cell inhibitory action at a 100 nM concentration.
The inhibitory potency of the synthesized compounds was examined in two ways, including an enzymatic assay and the radioisotope cellular test. […] The radioisotope cellular assay was performed using the MCF-7 cell line in the presence of radiolabeled [^3H]E1S.
The evaluation of the inhibitory effect of each compound with breast cancer cells was performed using a previously described method (27) with some modifications. MCF-7 cells were maintained in Dulbecco’s modified Eagle medium supplemented with 10% fetal bovine serum and cultured in the above medium until 80% confluence. […] After incubation, the medium (0.45 mL) was collected from each well, and the product formed by STS hydrolysis was extracted with toluene (4 mL). STS activity was measured using a MicroBeta radioluminometer (PerkinElmer). Assays with MCF-7 cells were carried out in triplicate.

[4] = target: T3, STS activity in murine livers and tumors (Mus musculus, UniProt P50427); experiment: determination of STS activity in murine livers and tumors of treated mice; conditions: for Residual STS activity [%] Liver: liver tissue of mice treated per os at 50 mg/kg b.w.; for Residual STS activity [%] Tumor: tumor tissue of mice treated per os at 50 mg/kg b.w.
T3 sequence (P50427 23-624): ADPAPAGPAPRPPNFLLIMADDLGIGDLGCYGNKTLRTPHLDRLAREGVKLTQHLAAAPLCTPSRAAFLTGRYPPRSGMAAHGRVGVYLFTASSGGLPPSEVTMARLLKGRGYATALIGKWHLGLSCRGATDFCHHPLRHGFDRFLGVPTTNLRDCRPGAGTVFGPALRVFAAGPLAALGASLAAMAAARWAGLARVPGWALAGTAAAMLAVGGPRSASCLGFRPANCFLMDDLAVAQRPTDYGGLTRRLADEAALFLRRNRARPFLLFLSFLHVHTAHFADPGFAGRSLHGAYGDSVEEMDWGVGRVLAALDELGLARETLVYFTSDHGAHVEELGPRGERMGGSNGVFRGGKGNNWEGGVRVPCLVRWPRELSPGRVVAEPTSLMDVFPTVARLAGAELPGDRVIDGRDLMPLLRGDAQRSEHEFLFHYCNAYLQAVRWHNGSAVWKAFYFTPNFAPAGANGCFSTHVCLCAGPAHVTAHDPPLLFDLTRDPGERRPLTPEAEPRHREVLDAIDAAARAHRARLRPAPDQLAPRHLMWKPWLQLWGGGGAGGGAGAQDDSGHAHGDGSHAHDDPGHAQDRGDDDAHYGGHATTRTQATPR
Procedure: Then, the samples were subjected to sonication in five cycles of 10 s each and centrifuged for 10 min at 14 000g to pellet the tissue debris. Total protein concentrations were determined in the obtained lysates using the Bradford method, and 100 μg of the total protein was used for each reaction as a source of STS activity. […] E1S (4 × 10^4 Bq, 3 nM) and 20 mM Tris-HCl, pH 7.4. The volume of the reaction mixtures was adjusted to 100 μL with water. After incubation, 60 μL of each reaction mixture was collected, and the product formed by STS hydrolysis was extracted with toluene (0.5 mL). STS activity was measured using a MicroBeta radioluminometer (PerkinElmer). Assays were carried out in triplicate.

[5] = blood morphology, blood biochemistry and organ weights of mice with 67NR tumor; conditions: for spleen weight: 50 mg/kg b.w. per os; for spleen weight / ALT / AST / creatinine / urea: mice with 67NR tumor; for HCT / HGB / MCH / MCHC / MCV / MPV / PCT / PDW / PLT / RBC / RDW: Table S2, mice with 67NR tumor, 50 mg/kg; for ALT / AST / creatinine / urea: Table S3, plasma, 50 mg/kg per os, N=9
Procedure: At the end of the study, the autopsy of the animals was performed: blood was collected for further analyses of the morphology (Table S2, Supporting Information) and biochemistry (Table S3 and Figure S6, Supporting Information) and for the determination of the plasma estradiol level using the ELISA method.
Mice were injected orthotopically (in the mammary gland fat pad) with 67NR mouse mammary tumor cells derived from in vitro culture (1.5 × 10^5 cells/0.05 mL Hanks fluid/mouse). The growth of tumors has been observed. […] Animals were observed during the next 17 days and euthanized. During observation, body weight and tumor growth were monitored three times a week. The volume of the tumors was calculated according to the following formula: TV = a^2·b/2 [mm^3], (where: a—width and b—length of the tumor). Blood, tumor tissue, and liver were harvested during autopsy for further analyses. Blood aliquots (about 500 μL) were collected in EDTA containing vials for morphology analysis (Mythic 18 analyzer, Orphee), and then, the plasma was collected (centrifuged at 2500g for 15 min at 4 °C within 1 h after collection) for biochemical parameter analysis (Cobas c111, Roche).

[6] = 50 mg/kg b.w. per os, nine mice/group

Compound	GRAN [1]	HCT [1]	HGB [1]	LIMF [1]	MCH [1]	MCHC [1]	MCV [1]	MON [1]	PLT [1]	RBC [1]	RDW [1]	WBC [1]	mice responded to the treatment [2, 6] [mice]	mice with tumor volume reduced by approx. 50% compared to the TV control [2, 6] [mice]	remaining activity at 0.5 µM [3] [%]	remaining activity at 0.001 µM (STS in MCF-7 cells) [%]	remaining activity at 0.01 µM (STS in MCF-7 cells) [%]	remaining activity at 0.1 µM (STS in MCF-7 cells) [%]	IC50 (STS in MCF-7 cells) [nM]	Residual STS activity [%] Liver [4]	also measured
NS(=O)(=O)Oc1ccc(-c2cn(-c3cccc(Cl)c3)nn2)cc1 [4a, 4-(1-(3-Chlorophenyl)-1H-1,2,3-triazol-4-yl)phenyl Sulfamate]	13,2±3,6%	41±0,2%	15,1±0,2 g/dL	83,5±4,1%	17,3±0,3 pg	36,9±0,5 g/dL	46,8±0,2 fL	3,3±0,6%	518±49 10x3/uL	8,8±0,1 10x6/uL	17,9±0,6%	4,5±0,3 10x3/uL	7	5	19.5 ± 0.97	38.2	28.1 ± 1.12	2.4 ± 0.07	1.9 ± 0.06	12,1%	body weight of treated tumor-bearing mice (observation) ([2]; 50 mg/kg b.w. per os): A body weight increase was observed; tumor growth inhibition (TGI) ([2]; 50 mg/kg b.w. per os): 47%; mice with much larger tumor than the mean control volume [2, 6]: 1 mice; Residual STS activity [%] Tumor [4]: 5,8%; spleen weight [5]: Significantly smaller spleens weights; HCT [5]: 35,9±3,2%; HGB [5]: 13,5±1,1 g/dL; MCH [5]: 17,7±0,5 pg; MCHC [5]: 37,6±0,7 g/dL; MCV [5]: 47,1±1 fL; MPV [5]: 4,9±0,1 fL; PCT [5]: 0,250±0,03%; PDW [5]: 24,9±3 fL; PLT [5]: 503,3±59,8 x103/uL; RBC [5]: 7,6±0,8 x106/uL; RDW [5]: 18±0,5%; ALT [5]: 27,3±3,9 U/L; AST [5]: 91,7±15,4 U/L; creatinine [5]: 5,75±1,52 umol/L; urea [5]: 7,92±0,66 mmol/L
NS(=O)(=O)Oc1ccc(-c2cn(-c3cc(Cl)cc(Cl)c3)nn2)cc1 [4b, 4-(1-(3,5-Dichlorophenyl)-1H-1,2,3-triazol-4-yl)phenyl Sulfamate]	11,0±1,7%	44,1±1,3%	16,4±0,6 g/dL	85,7±1,7%	17,4±0,01 pg	37,1±0,4 g/dL	46,9±0,5 fL	3,3±0,5%	533±34 10x3/uL	9,4±0,4 10x6/uL	17,5±0,6%	5,1±1,6 10x3/uL	7	5	13.3	63.7 ± 2.55	17.8 ± 0.62	2 ± 0.1	1.71 ± 0.05	14,5%	side effects and toxicity ([2]; 50 mg/kg): no evidence of side effects and toxicity; body weight of treated tumor-bearing mice (observation) ([2]; 50 mg/kg b.w. per os): A body weight increase was observed; residual STS activity [%] ([3]; 0.5 μM inhibitor concentration, substrate [3H]E1S, 3 nM, triplicate): 13.32 ± 0.67%; Residual STS activity [%] Tumor [4]: 5,1%; spleen weight [5]: Significantly smaller spleens weights; HCT [5]: 36,6±2,7%; HGB [5]: 13,7±0,9 g/dL; MCH [5]: 17,6±0,5 pg; MCHC [5]: 37,6±0,6 g/dL; MCV [5]: 46,8±0,9 fL; MPV [5]: 4,9±0,2 fL; PCT [5]: 0,248±0,03%; PDW [5]: 27,1±3,2 fL; PLT [5]: 512,2±72,3 x103/uL; RBC [5]: 7,8±0,7 x106/uL; RDW [5]: 18,2±0,5%; ALT [5]: 27,1±3,8 U/L; AST [5]: 86,6±18,5 U/L; creatinine [5]: 4,53±1,48 umol/L; urea [5]: 6,94±0,69 mmol/L
NS(=O)(=O)Oc1ccc(-c2cn(-c3cccc(F)c3)nn2)cc1 [5g]	12,4±1,7%	41,1±0,5%	15,2±0,2 g/dL	84,3±2,3%	17,2±0,2 pg	36,7±0,2 g/dL	46,9±0,3 fL	3,4±0,6%	522±33 10x3/uL	8,8±0,01 10x6/uL	17,4±0,3%	4,9±1,3 10x3/uL	8	5	37.9 ± 1.9	57.3 ± 3.44	1	1 ± 0.04	1.69 ± 0.08	13,6%	tumor growth inhibition (TGI) ([2]; 50 mg/kg b.w. per os): 42%; Residual STS activity [%] Tumor [4]: 5,2%; spleen weight [5]: Significantly smaller spleens weights; HCT [5]: 35±2,4%; HGB [5]: 13,5±0,9 g/dL; MCH [5]: 18,3±0,9 pg; MCHC [5]: 38,6±0,6 g/dL; MCV [5]: 47,4±2,8 fL; MPV [5]: 5±0,1 fL; PCT [5]: 0,255±0,04%; PDW [5]: 26,9±4,8 fL; PLT [5]: 508,6±69 x103/uL; RBC [5]: 7,4±0,7 x106/uL; RDW [5]: 19,1±1,5%; AST [5]: 102,2±23,1 U/L; creatinine [5]: 6,51±1,49 umol/L; urea [5]: 8,83±1,32 mmol/L
